Test results as given in PMC6891286, “Towards the Development of an In vivo Chemical Probe for Cyclin G Associated Kinase (GAK)” (Molecules, 2019).

Legend:
Experiment in all cases: KINOMEscan
Type in all cases: binding
CDK8 = biological target: T1, CDK8 (Homo sapiens, UniProt P49336); conditions: 35 at 1 µM; read-out: % inhibition
T1 construct: purchased Eurofins DiscoverX (KINOMEscan)
Procedure: (§1) KinomeScan Assay on 35 was performed as previously described at EuroFins DiscoverX (Fremont, CA, USA).

CAMK4 = biological target: T2, CAMK4 (Homo sapiens, UniProt Q16566); conditions: 35 at 1 µM; read-out: % inhibition
T2 construct: purchased Eurofins DiscoverX (KINOMEscan)
Procedure: as §1

STK33 = biological target: T3, STK33 (Homo sapiens, UniProt Q9BYT3); conditions: 35 at 1 µM; read-out: % inhibition
T3 construct: purchased Eurofins DiscoverX (KINOMEscan)
Procedure: as §1

CDKL5 = biological target: T4, CDKL5 (Homo sapiens, UniProt O76039); conditions: 35 at 1 µM; read-out: % inhibition
T4 construct: purchased Eurofins DiscoverX (KINOMEscan)
Procedure: as §1

BRSK1 = biological target: T5, BRSK1 (Homo sapiens, UniProt Q8TDC3); conditions: 35 at 1 µM; read-out: % inhibition
T5 construct: purchased Eurofins DiscoverX (KINOMEscan)
Procedure: as §1

IKK-epsilon = biological target: T6, IKK-epsilon (Homo sapiens, UniProt Q14164); conditions: 35 at 1 µM; read-out: % inhibition
T6 construct: purchased Eurofins DiscoverX (KINOMEscan)
Procedure: as §1

[1] = biological target: T7, ABL1(Q252H)-phosphorylated (Homo sapiens, UniProt P00519, Q252H); conditions: 35 at 1 µM; read-out: % inhibition
T7 construct: purchased Eurofins DiscoverX (KINOMEscan)
Procedure: as §1

CLK2 = biological target: T8, CLK2 (Homo sapiens, UniProt P49760); conditions: 35 at 1 µM; read-out: % inhibition
T8 construct: purchased Eurofins DiscoverX (KINOMEscan)
Procedure: as §1

ULK3 = biological target: T9, ULK3 (Homo sapiens, UniProt Q6PHR2); conditions: 35 at 1 µM; read-out: % inhibition
T9 construct: purchased Eurofins DiscoverX (KINOMEscan)
Procedure: as §1

NIK = biological target: T10, NIK (Homo sapiens, UniProt Q99558); conditions: 35 at 1 µM; read-out: % inhibition
T10 construct: purchased Eurofins DiscoverX (KINOMEscan)
Procedure: as §1

MLCK = biological target: T11, MLCK (Homo sapiens, UniProt Q32MK0); conditions: 35 at 1 µM; read-out: % inhibition
T11 construct: purchased Eurofins DiscoverX (KINOMEscan)
Procedure: as §1

DYRK2 = biological target: T12, DYRK2 (Homo sapiens, UniProt Q92630); conditions: 35 at 1 µM; read-out: % inhibition
T12 construct: purchased Eurofins DiscoverX (KINOMEscan)
Procedure: as §1

MAP3K3 = biological target: T13, MAP3K3 (Homo sapiens, UniProt Q99759); conditions: 35 at 1 µM; read-out: % inhibition
T13 construct: purchased Eurofins DiscoverX (KINOMEscan)
Procedure: as §1

FLT3(K663Q) = biological target: T14, FLT3(K663Q) (Homo sapiens, UniProt P36888, K663Q); conditions: 35 at 1 µM; read-out: % inhibition
T14 construct: purchased Eurofins DiscoverX (KINOMEscan)
Procedure: as §1

CSF1R-autoinhibited = biological target: T15, CSF1R-autoinhibited (Homo sapiens, UniProt P07333); conditions: 35 at 1 µM; read-out: % inhibition
T15 construct: purchased Eurofins DiscoverX (KINOMEscan)
Procedure: as §1

FLT3-autoinhibited = biological target: T16, FLT3-autoinhibited (Homo sapiens, UniProt P36888); conditions: 35 at 1 µM; read-out: % inhibition
T16 construct: purchased Eurofins DiscoverX (KINOMEscan)
Procedure: as §1

CDK3 = biological target: T17, CDK3 (Homo sapiens, UniProt Q00526); conditions: 35 at 1 µM; read-out: % inhibition
T17 construct: purchased Eurofins DiscoverX (KINOMEscan)
Procedure: as §1

CSK = biological target: T18, CSK (Homo sapiens, UniProt P41240); conditions: 35 at 1 µM; read-out: % inhibition
T18 construct: purchased Eurofins DiscoverX (KINOMEscan)
Procedure: as §1

PFCDPK1(P.falciparum) = biological target: T19, PFCDPK1(P.falciparum) (Plasmodium falciparum, UniProt P62344); conditions: read-out: % inhibition
T19 construct: purchased Eurofins DiscoverX (KINOMEscan)
Procedure: as §1

PRKX = biological target: T20, PRKX (Homo sapiens, UniProt P51817); conditions: 35 at 1 µM; read-out: % inhibition
T20 construct: purchased Eurofins DiscoverX (KINOMEscan)
Procedure: as §1

EPHB6 = biological target: T21, EPHB6 (Homo sapiens, UniProt O15197); conditions: 35 at 1 µM; read-out: % inhibition
T21 construct: purchased Eurofins DiscoverX (KINOMEscan)
Procedure: as §1

AKT1 = biological target: T22, AKT1 (Homo sapiens, UniProt P31749); conditions: 35 at 1 µM; read-out: % inhibition
T22 construct: purchased Eurofins DiscoverX (KINOMEscan)
Procedure: as §1

CSNK1G2 = biological target: T23, CSNK1G2 (Homo sapiens, UniProt P78368); conditions: 35 at 1 µM; read-out: % inhibition
T23 construct: purchased Eurofins DiscoverX (KINOMEscan)
Procedure: as §1

CIT = biological target: T24, CIT (Homo sapiens, UniProt O14578); conditions: 35 at 1 µM; read-out: % inhibition
T24 construct: purchased Eurofins DiscoverX (KINOMEscan)
Procedure: as §1

SgK110 = biological target: T25, SgK110 (Homo sapiens, UniProt P0C264); conditions: 35 at 1 µM; read-out: % inhibition
T25 construct: purchased Eurofins DiscoverX (KINOMEscan)
Procedure: as §1

RAF1 = biological target: T26, RAF1 (Homo sapiens, UniProt P04049); conditions: 35 at 1 µM; read-out: % inhibition
T26 construct: purchased Eurofins DiscoverX (KINOMEscan)
Procedure: as §1

KIT(V559D) = biological target: T27, KIT(V559D) (Homo sapiens, UniProt P10721, V559D); conditions: 35 at 1 µM; read-out: % inhibition
T27 construct: purchased Eurofins DiscoverX (KINOMEscan)
Procedure: as §1

MLK2 = biological target: T28, MLK2 (Homo sapiens, UniProt Q02779); conditions: 35 at 1 µM; read-out: % inhibition
T28 construct: purchased Eurofins DiscoverX (KINOMEscan)
Procedure: as §1

VPS34 = biological target: T29, VPS34 (Homo sapiens, UniProt Q8NEB9); conditions: 35 at 1 µM; read-out: % inhibition
T29 construct: purchased Eurofins DiscoverX (KINOMEscan)
Procedure: as §1

HIPK3 = biological target: T30, HIPK3 (Homo sapiens, UniProt Q9H422); conditions: 35 at 1 µM; read-out: % inhibition
T30 construct: purchased Eurofins DiscoverX (KINOMEscan)
Procedure: as §1

KIT(D816H) = biological target: T31, KIT(D816H) (Homo sapiens, UniProt P10721, D816H); conditions: 35 at 1 µM; read-out: % inhibition
T31 construct: purchased Eurofins DiscoverX (KINOMEscan)
Procedure: as §1

PIK3CA(M1043I) = biological target: T32, PIK3CA(M1043I) (Homo sapiens, UniProt P42336, M1043I); conditions: 35 at 1 µM; read-out: % inhibition
T32 construct: purchased Eurofins DiscoverX (KINOMEscan)
Procedure: as §1

PIM1 = biological target: T33, PIM1 (Homo sapiens, UniProt P11309); conditions: 35 at 1 µM; read-out: % inhibition
T33 construct: purchased Eurofins DiscoverX (KINOMEscan)
Procedure: as §1

[2] = biological target: T34, RSK4(Kin.Dom.1-N-terminal) (Homo sapiens, UniProt Q9UK32); conditions: 35 at 1 µM; read-out: % inhibition
T34 construct: RSK4(Kin.Dom.1-N-terminal); purchased Eurofins DiscoverX (KINOMEscan)
Procedure: as §1

PIKFYVE = biological target: T35, PIKFYVE (Homo sapiens, UniProt Q9Y2I7); conditions: 35 at 1 µM; read-out: % inhibition
T35 construct: purchased Eurofins DiscoverX (KINOMEscan)
Procedure: as §1

EGFR(T790M) = biological target: T36, EGFR(T790M) (Homo sapiens, UniProt P00533, T790M); conditions: 35 at 1 µM; read-out: % inhibition
T36 construct: purchased Eurofins DiscoverX (KINOMEscan)
Procedure: as §1

CSNK1G3 = biological target: T37, CSNK1G3 (Homo sapiens, UniProt Q9Y6M4); conditions: 35 at 1 µM; read-out: % inhibition
T37 construct: purchased Eurofins DiscoverX (KINOMEscan)
Procedure: as §1

[3] = biological target: T38, RSK1(Kin.Dom.1-N-terminal) (Homo sapiens, UniProt Q15418); conditions: 35 at 1 µM; read-out: % inhibition
T38 construct: RSK1(Kin.Dom.1-N-terminal); purchased Eurofins DiscoverX (KINOMEscan)
Procedure: as §1

BMPR1A = biological target: T39, BMPR1A (Homo sapiens, UniProt P36894); conditions: 35 at 1 µM; read-out: % inhibition
T39 construct: purchased Eurofins DiscoverX (KINOMEscan)
Procedure: as §1

FLT3(D835V) = biological target: T40, FLT3(D835V) (Homo sapiens, UniProt P36888, D835V); conditions: 35 at 1 µM; read-out: % inhibition
T40 construct: purchased Eurofins DiscoverX (KINOMEscan)
Procedure: as §1

CAMK2G = biological target: T41, CAMK2G (Homo sapiens, UniProt Q13555); conditions: 35 at 1 µM; read-out: % inhibition
T41 construct: purchased Eurofins DiscoverX (KINOMEscan)
Procedure: as §1

T37 sequence (Q9Y6M4 whole entry): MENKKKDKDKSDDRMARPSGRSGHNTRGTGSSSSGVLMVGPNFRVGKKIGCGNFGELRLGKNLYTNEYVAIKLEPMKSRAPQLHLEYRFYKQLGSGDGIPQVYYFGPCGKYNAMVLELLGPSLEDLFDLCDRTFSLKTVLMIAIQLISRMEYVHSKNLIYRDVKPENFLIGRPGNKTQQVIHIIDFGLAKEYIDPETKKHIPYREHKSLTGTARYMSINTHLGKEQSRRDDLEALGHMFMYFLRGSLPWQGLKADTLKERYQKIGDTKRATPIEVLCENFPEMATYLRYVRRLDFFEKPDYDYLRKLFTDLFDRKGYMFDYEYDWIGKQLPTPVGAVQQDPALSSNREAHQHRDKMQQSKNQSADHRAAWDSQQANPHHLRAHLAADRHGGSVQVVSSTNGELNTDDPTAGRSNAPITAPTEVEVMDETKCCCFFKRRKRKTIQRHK
T28 sequence (Q02779 whole entry): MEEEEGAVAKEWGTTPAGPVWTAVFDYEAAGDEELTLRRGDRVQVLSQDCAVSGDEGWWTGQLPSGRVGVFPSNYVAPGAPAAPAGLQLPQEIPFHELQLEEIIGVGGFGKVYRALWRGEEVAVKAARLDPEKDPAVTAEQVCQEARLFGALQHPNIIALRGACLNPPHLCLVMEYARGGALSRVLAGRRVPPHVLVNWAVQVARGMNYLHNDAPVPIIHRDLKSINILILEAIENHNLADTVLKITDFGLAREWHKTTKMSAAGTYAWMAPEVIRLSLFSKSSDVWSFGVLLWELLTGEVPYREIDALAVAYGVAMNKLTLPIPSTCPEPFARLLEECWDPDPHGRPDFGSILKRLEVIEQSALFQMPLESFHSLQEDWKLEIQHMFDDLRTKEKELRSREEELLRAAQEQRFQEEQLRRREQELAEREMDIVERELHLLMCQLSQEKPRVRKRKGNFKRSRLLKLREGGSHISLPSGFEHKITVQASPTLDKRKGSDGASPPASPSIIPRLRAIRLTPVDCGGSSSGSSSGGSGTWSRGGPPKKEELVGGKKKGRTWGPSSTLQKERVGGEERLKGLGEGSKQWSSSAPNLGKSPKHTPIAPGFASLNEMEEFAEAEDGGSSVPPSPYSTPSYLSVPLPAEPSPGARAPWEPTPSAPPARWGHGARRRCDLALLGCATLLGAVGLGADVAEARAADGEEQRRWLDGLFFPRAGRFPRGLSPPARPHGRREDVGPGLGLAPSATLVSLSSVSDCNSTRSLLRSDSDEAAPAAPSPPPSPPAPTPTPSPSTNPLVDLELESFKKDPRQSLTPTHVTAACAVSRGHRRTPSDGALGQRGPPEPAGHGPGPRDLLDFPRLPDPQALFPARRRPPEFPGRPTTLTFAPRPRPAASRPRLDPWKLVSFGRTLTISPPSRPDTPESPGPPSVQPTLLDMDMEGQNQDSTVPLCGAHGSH
T12 sequence (Q92630 whole entry): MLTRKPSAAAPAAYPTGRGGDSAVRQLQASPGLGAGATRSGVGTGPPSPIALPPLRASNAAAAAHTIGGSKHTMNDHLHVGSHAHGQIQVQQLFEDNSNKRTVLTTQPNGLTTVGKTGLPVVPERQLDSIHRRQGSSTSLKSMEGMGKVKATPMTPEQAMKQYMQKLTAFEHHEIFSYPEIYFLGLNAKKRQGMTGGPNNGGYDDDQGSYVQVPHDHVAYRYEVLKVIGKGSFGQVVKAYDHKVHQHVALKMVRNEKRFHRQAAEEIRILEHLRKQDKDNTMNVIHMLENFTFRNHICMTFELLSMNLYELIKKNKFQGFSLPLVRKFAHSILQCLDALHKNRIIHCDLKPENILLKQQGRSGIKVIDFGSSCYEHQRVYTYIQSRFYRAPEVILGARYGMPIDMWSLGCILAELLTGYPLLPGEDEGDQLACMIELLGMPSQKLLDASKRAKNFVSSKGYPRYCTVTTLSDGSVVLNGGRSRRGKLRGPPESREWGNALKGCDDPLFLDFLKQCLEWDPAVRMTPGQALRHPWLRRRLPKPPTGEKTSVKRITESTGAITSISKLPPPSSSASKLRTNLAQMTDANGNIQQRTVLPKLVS
T30 sequence (Q9H422 whole entry): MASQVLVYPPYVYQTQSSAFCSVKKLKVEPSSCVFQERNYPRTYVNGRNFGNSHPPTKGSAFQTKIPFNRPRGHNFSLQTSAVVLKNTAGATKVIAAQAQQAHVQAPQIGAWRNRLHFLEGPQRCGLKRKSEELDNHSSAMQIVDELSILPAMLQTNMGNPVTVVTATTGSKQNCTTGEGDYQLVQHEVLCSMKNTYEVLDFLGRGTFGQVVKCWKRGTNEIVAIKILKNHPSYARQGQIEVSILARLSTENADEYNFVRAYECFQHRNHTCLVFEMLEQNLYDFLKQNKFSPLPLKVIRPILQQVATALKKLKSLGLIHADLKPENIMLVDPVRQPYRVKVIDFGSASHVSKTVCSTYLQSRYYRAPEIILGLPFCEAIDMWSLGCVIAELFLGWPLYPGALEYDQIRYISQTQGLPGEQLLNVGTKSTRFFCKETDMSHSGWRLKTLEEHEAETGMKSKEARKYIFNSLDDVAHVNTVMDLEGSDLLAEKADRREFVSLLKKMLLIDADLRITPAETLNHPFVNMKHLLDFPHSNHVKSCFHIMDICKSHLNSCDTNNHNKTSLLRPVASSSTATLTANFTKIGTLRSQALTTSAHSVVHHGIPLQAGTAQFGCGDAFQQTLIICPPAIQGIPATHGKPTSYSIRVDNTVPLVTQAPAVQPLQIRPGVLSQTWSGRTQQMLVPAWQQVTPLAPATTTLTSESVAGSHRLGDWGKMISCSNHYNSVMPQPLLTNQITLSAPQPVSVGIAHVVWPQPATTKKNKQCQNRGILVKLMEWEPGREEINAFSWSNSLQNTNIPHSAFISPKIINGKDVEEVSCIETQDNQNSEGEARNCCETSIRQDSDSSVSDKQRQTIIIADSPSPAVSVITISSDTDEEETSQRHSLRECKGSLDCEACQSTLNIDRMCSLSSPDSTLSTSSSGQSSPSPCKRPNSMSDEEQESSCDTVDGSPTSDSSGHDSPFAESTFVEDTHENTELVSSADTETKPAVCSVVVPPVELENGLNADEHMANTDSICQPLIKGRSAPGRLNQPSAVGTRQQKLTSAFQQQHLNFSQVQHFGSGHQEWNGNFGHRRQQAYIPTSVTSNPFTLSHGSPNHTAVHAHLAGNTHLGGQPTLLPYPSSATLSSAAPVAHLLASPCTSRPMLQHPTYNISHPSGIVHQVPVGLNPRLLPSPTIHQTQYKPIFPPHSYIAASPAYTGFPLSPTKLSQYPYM
T41 sequence (Q13555 whole entry): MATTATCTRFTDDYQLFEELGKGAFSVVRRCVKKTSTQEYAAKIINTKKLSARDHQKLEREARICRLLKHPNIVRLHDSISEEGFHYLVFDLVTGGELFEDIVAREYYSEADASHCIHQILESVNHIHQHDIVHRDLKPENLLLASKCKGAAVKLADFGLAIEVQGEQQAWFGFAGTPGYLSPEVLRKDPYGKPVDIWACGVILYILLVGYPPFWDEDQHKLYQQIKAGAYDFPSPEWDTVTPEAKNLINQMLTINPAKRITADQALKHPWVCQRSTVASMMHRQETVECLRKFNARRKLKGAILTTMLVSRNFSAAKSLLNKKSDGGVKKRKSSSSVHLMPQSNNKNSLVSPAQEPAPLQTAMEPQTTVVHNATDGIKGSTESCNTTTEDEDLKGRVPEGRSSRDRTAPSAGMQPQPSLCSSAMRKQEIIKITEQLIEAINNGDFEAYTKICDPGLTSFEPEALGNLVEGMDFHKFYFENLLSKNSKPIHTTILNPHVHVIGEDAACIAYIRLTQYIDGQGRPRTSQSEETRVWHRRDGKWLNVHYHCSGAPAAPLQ
T19 sequence (P62344 whole entry): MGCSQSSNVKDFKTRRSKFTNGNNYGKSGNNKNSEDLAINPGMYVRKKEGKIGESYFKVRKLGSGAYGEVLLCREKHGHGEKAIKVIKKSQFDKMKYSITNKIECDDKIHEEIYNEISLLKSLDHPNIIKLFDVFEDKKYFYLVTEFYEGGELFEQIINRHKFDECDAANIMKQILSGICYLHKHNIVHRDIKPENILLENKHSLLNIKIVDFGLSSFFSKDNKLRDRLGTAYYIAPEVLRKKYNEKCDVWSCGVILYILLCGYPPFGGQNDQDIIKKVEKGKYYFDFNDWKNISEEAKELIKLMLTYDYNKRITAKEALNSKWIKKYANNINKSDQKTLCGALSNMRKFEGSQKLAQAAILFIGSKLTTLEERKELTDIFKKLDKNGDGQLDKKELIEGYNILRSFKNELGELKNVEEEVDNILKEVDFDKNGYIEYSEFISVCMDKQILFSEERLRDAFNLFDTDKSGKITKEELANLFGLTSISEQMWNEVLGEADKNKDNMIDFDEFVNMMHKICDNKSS
T33 sequence (P11309 whole entry): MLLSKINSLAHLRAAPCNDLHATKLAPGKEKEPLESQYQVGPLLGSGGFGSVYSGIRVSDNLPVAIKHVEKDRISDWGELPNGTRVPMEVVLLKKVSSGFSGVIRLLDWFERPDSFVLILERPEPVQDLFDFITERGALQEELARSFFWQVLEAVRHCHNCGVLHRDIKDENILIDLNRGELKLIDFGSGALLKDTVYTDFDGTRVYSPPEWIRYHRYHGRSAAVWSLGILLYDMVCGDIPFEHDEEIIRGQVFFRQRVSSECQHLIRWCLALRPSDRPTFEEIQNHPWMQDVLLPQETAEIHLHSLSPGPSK
T17 sequence (Q00526 whole entry): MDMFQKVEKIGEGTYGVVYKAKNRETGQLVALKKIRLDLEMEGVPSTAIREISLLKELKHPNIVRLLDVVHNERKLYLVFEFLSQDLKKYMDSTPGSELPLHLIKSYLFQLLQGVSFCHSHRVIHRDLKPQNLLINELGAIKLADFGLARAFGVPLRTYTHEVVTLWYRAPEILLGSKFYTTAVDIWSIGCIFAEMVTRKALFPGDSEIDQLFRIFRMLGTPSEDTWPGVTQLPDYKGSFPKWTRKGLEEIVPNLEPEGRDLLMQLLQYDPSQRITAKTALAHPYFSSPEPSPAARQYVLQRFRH

## Brc1ccc2nccc(Nc3ccc4cn[nH]c4c3)c2c1 [Compound 35, 6-Bromo-N-(1H-indazol-6-yl)quinolin-4-amine]
CDK8
  activity at 1 µM: 83%
CAMK4
  activity at 1 µM: 100%
STK33
  activity at 1 µM: 100%
CDKL5
  activity at 1 µM: 100%
BRSK1
  activity at 1 µM: 100%
IKK-epsilon
  activity at 1 µM: 95%
[1]
  activity at 1 µM: 100%
CLK2
  activity at 1 µM: 86%
ULK3
  activity at 1 µM: 81%
NIK
  activity at 1 µM: 100%
MLCK
  activity at 1 µM: 100%
DYRK2
  activity at 1 µM: 100%
MAP3K3
  activity at 1 µM: 100%
FLT3(K663Q)
  activity at 1 µM: 97%
CSF1R-autoinhibited
  activity at 1 µM: 100%
FLT3-autoinhibited
  activity at 1 µM: 100%
CDK3
  activity at 1 µM: 96%
CSK
  activity at 1 µM: 100%
PFCDPK1(P.falciparum)
  activity at 1 µM: 63%
PRKX
  activity at 1 µM: 100%
EPHB6
  activity at 1 µM: 100%
AKT1
  activity at 1 µM: 100%
CSNK1G2
  activity at 1 µM: 100%
CIT
  activity at 1 µM: 86%
SgK110
  activity at 1 µM: 100%
RAF1
  activity at 1 µM: 100%
KIT(V559D)
  activity at 1 µM: 100%
MLK2
  activity at 1 µM: 100%
VPS34
  activity at 1 µM: 100%
HIPK3
  activity at 1 µM: 87%
KIT(D816H)
  activity at 1 µM: 100%
PIK3CA(M1043I)
  activity at 1 µM: 99%
PIM1
  activity at 1 µM: 100%
[2]
  activity at 1 µM: 100%
PIKFYVE
  activity at 1 µM: 100%
EGFR(T790M)
  activity at 1 µM: 78%
CSNK1G3
  activity at 1 µM: 100%
[3]
  activity at 1 µM: 100%
BMPR1A
  activity at 1 µM: 100%
FLT3(D835V)
  activity at 1 µM: 100%
CAMK2G
  activity at 1 µM: 100%
